Experimental data as given in patent publication US20250032460A1, “METHODS OF TREATING NEUROLOGICAL DISORDERS” (MapLight Therapeutics, Inc., priority 2021, published 2025).
“And” between values parts separate entries of the source, which are not always exact repeats. Identical values can stand only once.

How the values were obtained:
[1] = Plasma concentrations during 7-day oral dosing in beagle dogs; type: in vivo
[2] = Single ascending dose study: pharmacokinetics (plasma, CSF); type: in vivo; conditions: Group 2, fesoterodine fumarate 8 mg 4 hours prior to 40 mg Compound 1
Protocol: Compound 1 was administered in a single ascending dose (SAD) study conducted in approximately 54 healthy adult volunteers to investigate Compound 1 pharmacokinetics, safety, and tolerability. The study was conducted in two groups.
Group 2 evaluated tolerability of Compound 1 at Group 1 MTD with or without fesoterodine fumarate co-administration. Subjects received 8 mg of fesoterodine fumarate tablet or matched placebo tablet 4 hours prior to administration of 40 mg of Compound 1.

[3] = Group 2: fesoterodine fumarate 3 mg/kg/day PO alone, Day 7, 8 h
[4] = Group 3: Compound 1 1.5 mg/kg/day PO + fesoterodine fumarate 3 mg/kg/day PO, Day 1, 0.250 h
[5] = Group 3: Compound 1 1.5 mg/kg/day PO + fesoterodine fumarate 3 mg/kg/day PO, Day 1, 0.500 h
[6] = Group 3: Compound 1 1.5 mg/kg/day PO + fesoterodine fumarate 3 mg/kg/day PO, Day 1, 0.750 h
[7] = Group 3: Compound 1 1.5 mg/kg/day PO + fesoterodine fumarate 3 mg/kg/day PO, Day 1, 1.00 h
[8] = Group 3: Compound 1 1.5 mg/kg/day PO + fesoterodine fumarate 3 mg/kg/day PO, Day 1, 2.00 h
[9] = Group 3: Compound 1 1.5 mg/kg/day PO + fesoterodine fumarate 3 mg/kg/day PO, Day 1, 4.00 h
[10] = Group 3: Compound 1 1.5 mg/kg/day PO + fesoterodine fumarate 3 mg/kg/day PO, Day 1, 8.00 h
[11] = Group 3: Compound 1 1.5 mg/kg/day PO + fesoterodine fumarate 3 mg/kg/day PO, Day 7, 0.250 h
[12] = Group 3: Compound 1 1.5 mg/kg/day PO + fesoterodine fumarate 3 mg/kg/day PO, Day 7, 0.500 h
[13] = Group 3: Compound 1 1.5 mg/kg/day PO + fesoterodine fumarate 3 mg/kg/day PO, Day 7, 0.750 h
[14] = Group 3: Compound 1 1.5 mg/kg/day PO + fesoterodine fumarate 3 mg/kg/day PO, Day 7, 1.00 h
[15] = Group 3: Compound 1 1.5 mg/kg/day PO + fesoterodine fumarate 3 mg/kg/day PO, Day 7, 2.00 h
[16] = Group 3: Compound 1 1.5 mg/kg/day PO + fesoterodine fumarate 3 mg/kg/day PO, Day 7, 4.00 h
[17] = Group 3: Compound 1 1.5 mg/kg/day PO + fesoterodine fumarate 3 mg/kg/day PO, Day 7, 8.00 h

CC(C)N(CCC(c1ccccc1)c1cc(CO)ccc1O)C(C)C (stereo not shown) [desfesoterodine, 5-hydroxymethyl tolterodine]
Plasma concentration of desfesoterodine, individual animals D2001-D2005 ([1]; Group 2: fesoterodine fumarate 3 mg/kg/day PO alone, Day 7, 4 h): 51.4 ng/mL and 48.6 ng/mL and 44 ng/mL and 40.8 ng/mL and 43.5 ng/mL | Plasma concentration of desfesoterodine, Mean [1, 3]: 8.066 ng/mL | Plasma concentration of desfesoterodine, individual animals D2001-D2005 [1, 3]: 8.12 ng/mL and 7.08 ng/mL and 6.52 ng/mL and 13.8 ng/mL and 4.81 ng/mL | Plasma concentration of desfesoterodine, individual animals D2001-D2005 ([1]; Group 2: fesoterodine fumarate 3 mg/kg/day PO alone, Day 7, 24 h): BQL | Plasma concentration of desfesoterodine, individual animals D3001-D3005 ([1]; Group 3: Compound 1 1.5 mg/kg/day PO + fesoterodine fumarate 3 mg/kg/day PO, Day 1, 0.00 h): BQL | Plasma concentration of desfesoterodine, Mean [1, 4]: 125 ng/mL | Plasma concentration of desfesoterodine, individual animals D3001-D3005 [1, 4]: 225 ng/mL and 35.2 ng/mL and 333 ng/mL and 23.3 ng/mL and 9.33 ng/mL | Plasma concentration of desfesoterodine, Mean [1, 5]: 111 ng/mL | Plasma concentration of desfesoterodine, individual animals D3001-D3005 [1, 5]: 154 ng/mL and 58.0 ng/mL and 257 ng/mL and 35.9 ng/mL and 52.4 ng/mL | Plasma concentration of desfesoterodine, Mean [1, 6]: 100 ng/mL | Plasma concentration of desfesoterodine, individual animals D3001-D3005 [1, 6]: 136 ng/mL and 35.1 ng/mL and 203 ng/mL and 64.7 ng/mL and 61.3 ng/mL | Plasma concentration of desfesoterodine, Mean [1, 7]: 66.6 ng/mL | Plasma concentration of desfesoterodine, individual animals D3001-D3005 [1, 7]: 96.0 ng/mL and 30.6 ng/mL and 149 ng/mL and 15.8 ng/mL and 41.5 ng/mL | Plasma concentration of desfesoterodine, Mean [1, 8]: 36.0 ng/mL | Plasma concentration of desfesoterodine, individual animals D3001-D3005 [1, 8]: 32.4 ng/mL and 17.2 ng/mL and 74.2 ng/mL and 10.7 ng/mL and 45.5 ng/mL | Plasma concentration of desfesoterodine, Mean [1, 9]: 9.29 ng/mL | Plasma concentration of desfesoterodine, individual animals D3001-D3005 [1, 9]: 7.08 ng/mL and 3.69 ng/mL and 17.0 ng/mL and 5.38 ng/mL and 13.3 ng/mL | Plasma concentration of desfesoterodine, Mean [1, 10]: 2.78 ng/mL | Plasma concentration of desfesoterodine, individual animals D3001-D3005 [1, 10]: 1.41 ng/ml and 4.22 ng/ml and 3.82 ng/ml and BQL and 1.67 ng/ml | Plasma concentration of desfesoterodine, individual animals D3001-D3005 ([1]; Group 3: Compound 1 1.5 mg/kg/day PO + fesoterodine fumarate 3 mg/kg/day PO, Day 1, 24.0 h): BQL | Plasma concentration of desfesoterodine, individual animals D3001-D3005 ([1]; Group 3: Compound 1 1.5 mg/kg/day PO + fesoterodine fumarate 3 mg/kg/day PO, Day 7, 0.00 h): BQL | Plasma concentration of desfesoterodine, Mean [1, 11]: 183 ng/mL | Plasma concentration of desfesoterodine, individual animals D3001-D3005 [1, 11]: 29.1 ng/mL and 60.6 ng/mL and 407 ng/mL and 149 ng/mL and 270 ng/mL | Plasma concentration of desfesoterodine, Mean [1, 12]: 201 ng/mL | Plasma concentration of desfesoterodine, individual animals D3001-D3005 [1, 12]: 103 ng/mL and 77.7 ng/mL and 318 ng/mL and 197 ng/mL and 311 ng/mL | Plasma concentration of desfesoterodine, Mean [1, 13]: 148 ng/mL | Plasma concentration of desfesoterodine, individual animals D3001-D3005 [1, 13]: 84.3 ng/mL and 66.4 ng/mL and 294 ng/mL and 102 ng/mL and 191 ng/mL | Plasma concentration of desfesoterodine, Mean [1, 14]: 128 ng/mL | Plasma concentration of desfesoterodine, individual animals D3001-D3005 [1, 14]: 73.5 ng/mL and 64.7 ng/mL and 224 ng/mL and 105 ng/mL and 175 ng/mL | Plasma concentration of desfesoterodine, Mean [1, 15]: 80.5 ng/mL | Plasma concentration of desfesoterodine, individual animals D3001-D3005 [1, 15]: 45.8 ng/mL and 42.6 ng/mL and 149 ng/mL and 63.2 ng/mL and 102 ng/mL | Plasma concentration of desfesoterodine, Mean [1, 16]: 40.2 ng/mL | Plasma concentration of desfesoterodine, individual animals D3001-D3005 [1, 16]: 52.2 ng/mL and 15.2 ng/mL and 61.6 ng/mL and 31.6 ng/mL and 40.5 ng/mL | Plasma concentration of desfesoterodine, Mean [1, 17]: 5.93 ng/mL | Plasma concentration of desfesoterodine, individual animals D3001-D3005 [1, 17]: 10.6 ng/mL and 3.92 ng/mL and 8.16 ng/mL and 2.93 ng/mL and 4.06 ng/mL | Plasma concentration of desfesoterodine, individual animals D3001-D3005 ([1]; Group 3: Compound 1 1.5 mg/kg/day PO + fesoterodine fumarate 3 mg/kg/day PO, Day 7, 24.0 h): BQL | mean desfesoterodine concentration in CSF at 1hour after administration of compound 1 [2]: 121.44 pg/mL
